Source: ChEMBL document CHEMBL5260838 (J Med Chem, 2019)
pIC50: −log10 of the molar value. Values after ≈ are worked out from the molar mass of the structure shown.

Legend:
[1] = target: T1, Cytochrome P450 1A2 (Homo sapiens, UniProt P05177); assay: Inhibition of CYP1A2 (unknown origin); format: ADME
T1 sequence (P05177 whole entry): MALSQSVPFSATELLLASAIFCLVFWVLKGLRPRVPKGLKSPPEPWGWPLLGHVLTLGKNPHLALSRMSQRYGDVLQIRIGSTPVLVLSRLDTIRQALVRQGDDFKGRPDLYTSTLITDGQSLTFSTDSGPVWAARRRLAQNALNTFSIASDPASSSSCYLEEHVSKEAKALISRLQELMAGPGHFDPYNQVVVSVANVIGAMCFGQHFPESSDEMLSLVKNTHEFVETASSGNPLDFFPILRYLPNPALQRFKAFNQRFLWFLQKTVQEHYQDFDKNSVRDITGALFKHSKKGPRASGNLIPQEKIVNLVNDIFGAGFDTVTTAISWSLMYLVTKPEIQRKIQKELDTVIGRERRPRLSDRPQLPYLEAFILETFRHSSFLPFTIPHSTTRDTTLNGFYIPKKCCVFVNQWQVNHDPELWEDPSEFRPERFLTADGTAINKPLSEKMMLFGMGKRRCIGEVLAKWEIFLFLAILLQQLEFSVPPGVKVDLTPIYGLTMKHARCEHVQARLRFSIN

[2] = target: Cytochrome P450 2C19 (Homo sapiens, UniProt P33261); assay: Inhibition of CYP2C19 (unknown origin); format: ADME
[3] = target: Cytochrome P450 2C9 (Homo sapiens, UniProt P11712); assay: Inhibition of CYP2C9 (unknown origin); format: ADME
[4] = target: Cytochrome P450 2D6 (Homo sapiens, UniProt P10635); assay: Inhibition of CYP2D6 (unknown origin); format: ADME
[5] = Apparent permeability from apical to basolateral side in MDCK1 cells; format: ADME, cell-based, Canis lupus familiaris; conditions: dog, MDCK
[6] = Protein binding in human plasma; format: ADME, cell-free; conditions: read-out: PPB (converted)
[7] = target: Sodium channel protein type 9 subunit alpha (Rattus norvegicus, UniProt O08562); assay: Inhibition of rat Nav1.7 at -60 mV holding potential by PatchXpress automated voltage clamp electrophysiology technique
[8] = target: Sodium channel protein type 5 subunit alpha (Homo sapiens, UniProt Q14524); assay: Inhibition of human Nav1.5 alpha subunit expressed in HEK293 cells co-expressing beta1 subunit at -60 mV holding potential by PatchXpress automated voltage clamp electrophysiology technique; format: cell-based
[9] = target: Sodium channel protein type 2 subunit alpha (Homo sapiens, UniProt Q99250); assay: Inhibition of human Nav1.2 alpha subunit expressed in HEK293 cells co-expressing beta1 subunit at -35 mV holding potential by PatchXpress automated voltage clamp electrophysiology technique; format: cell-based
[10] = target: Sodium channel protein type 10 subunit alpha (Mus musculus) (UniProt Q6QIY3); assay: Inhibition of TTX-resistant Nav1.8 in mouse dorsal root ganglion neuron at 10 uM by voltage clamp recording relative to control; format: tissue-based; conditions: DRG neuron
[11] = Protein binding in rat plasma; format: ADME, cell-free; conditions: read-out: PPB (converted)
[12] = Kinetic solubility of compound; format: physicochemical; conditions: read-out: Kinetic_solubility
[13] = tested on: mouse breast cancer resistant protein (Bcrp); assay: Apparent permeability from apical to basolateral side in MDCK-II cells expressing mouse breast cancer resistant protein; format: ADME, cell-based, Canis lupus familiaris; conditions: dog
[14] = Half-life in FVB mouse at 30 mg/kg, po; format: ADME, organism-based; conditions: in vivo
[15] = AUC in FVB mouse at 30 mg/kg, po; format: ADME, organism-based; parameters: dose 30 mg/kg, route po; conditions: in vivo
[16] = Oral bioavailability in FVB mouse at 30 mg/kg; format: ADME, organism-based; conditions: in vivo
[17] = Clearance in Sprague-Dawley rat at 1 mg/kg, iv; format: ADME, organism-based; conditions: in vivo
[18] = Volume of distribution at steady state in Sprague-Dawley rat at 1 mg/kg, iv; format: ADME, organism-based; conditions: in vivo, read-out: Vdss
[19] = Cmax in Sprague-Dawley rat at 5 mg/kg, po; format: ADME, organism-based; parameters: dose 5 mg/kg, route po; conditions: in vivo
[20] = AUC in Sprague-Dawley rat at 5 mg/kg, po; format: ADME, organism-based; parameters: dose 5 mg/kg, route po; conditions: in vivo
[21] = Volume of distribution at steady state in Beagle dog at 0.5 mg/kg, iv; format: ADME, organism-based, Canis lupus familiaris; conditions: in vivo, read-out: Vdss
[22] = Cmax in Beagle dog at 1 mg/kg, po; format: ADME, organism-based, Canis lupus familiaris; parameters: dose 1 mg/kg, route po; conditions: in vivo
[23] = tested on: Mus musculus; assay: Antinociceptive activity against aconitine-induced pain in FVB mouse model expressing human Nav 1.7 I848T mutant assessed as reduction in nociceptive behavior at 0.3 mg/kg, po administered 120 mins prior to aconitine administration and measured after 70 mins relative to control; format: functional; parameters: scale not given: the % may be the effect or the level left; conditions: time 190 min, 3.167 h
[24] = Unbound plasma concentration in FVB mouse model of aconitine-induced pain expressing human Nav1.7 I848T mutant at 0.3 mg/kg, po administered 120 mins prior to aconitine administration and measured after 70 mins by UPLC-ESI MS/MS analysis; format: ADME, organism-based; conditions: in vivo, 3.167 h, time 190 min
[25] = Drug concentration in plasma of FVB mouse model of aconitine-induced pain expressing human Nav1.7 I848T mutant at 10 mg/kg, po administered 120 mins prior to aconitine administered and measured after 70 mins by UPLC-ESI MS/MS analysis; format: ADME, organism-based; conditions: time 190 min
[26] = Brain to plasma ratio in FVB mouse model of aconitine-induced pain expressing human Nav1.7 I848T mutant administered orally 120 mins prior to aconitine administered and measured after 70 mins by UPLC-ESI MS/MS analysis; format: ADME; conditions: route po, time 190 min, read-out: BPR

Sodium channel protein type 10 subunit alpha (Mus musculus), sequence (Q6QIY3 whole entry): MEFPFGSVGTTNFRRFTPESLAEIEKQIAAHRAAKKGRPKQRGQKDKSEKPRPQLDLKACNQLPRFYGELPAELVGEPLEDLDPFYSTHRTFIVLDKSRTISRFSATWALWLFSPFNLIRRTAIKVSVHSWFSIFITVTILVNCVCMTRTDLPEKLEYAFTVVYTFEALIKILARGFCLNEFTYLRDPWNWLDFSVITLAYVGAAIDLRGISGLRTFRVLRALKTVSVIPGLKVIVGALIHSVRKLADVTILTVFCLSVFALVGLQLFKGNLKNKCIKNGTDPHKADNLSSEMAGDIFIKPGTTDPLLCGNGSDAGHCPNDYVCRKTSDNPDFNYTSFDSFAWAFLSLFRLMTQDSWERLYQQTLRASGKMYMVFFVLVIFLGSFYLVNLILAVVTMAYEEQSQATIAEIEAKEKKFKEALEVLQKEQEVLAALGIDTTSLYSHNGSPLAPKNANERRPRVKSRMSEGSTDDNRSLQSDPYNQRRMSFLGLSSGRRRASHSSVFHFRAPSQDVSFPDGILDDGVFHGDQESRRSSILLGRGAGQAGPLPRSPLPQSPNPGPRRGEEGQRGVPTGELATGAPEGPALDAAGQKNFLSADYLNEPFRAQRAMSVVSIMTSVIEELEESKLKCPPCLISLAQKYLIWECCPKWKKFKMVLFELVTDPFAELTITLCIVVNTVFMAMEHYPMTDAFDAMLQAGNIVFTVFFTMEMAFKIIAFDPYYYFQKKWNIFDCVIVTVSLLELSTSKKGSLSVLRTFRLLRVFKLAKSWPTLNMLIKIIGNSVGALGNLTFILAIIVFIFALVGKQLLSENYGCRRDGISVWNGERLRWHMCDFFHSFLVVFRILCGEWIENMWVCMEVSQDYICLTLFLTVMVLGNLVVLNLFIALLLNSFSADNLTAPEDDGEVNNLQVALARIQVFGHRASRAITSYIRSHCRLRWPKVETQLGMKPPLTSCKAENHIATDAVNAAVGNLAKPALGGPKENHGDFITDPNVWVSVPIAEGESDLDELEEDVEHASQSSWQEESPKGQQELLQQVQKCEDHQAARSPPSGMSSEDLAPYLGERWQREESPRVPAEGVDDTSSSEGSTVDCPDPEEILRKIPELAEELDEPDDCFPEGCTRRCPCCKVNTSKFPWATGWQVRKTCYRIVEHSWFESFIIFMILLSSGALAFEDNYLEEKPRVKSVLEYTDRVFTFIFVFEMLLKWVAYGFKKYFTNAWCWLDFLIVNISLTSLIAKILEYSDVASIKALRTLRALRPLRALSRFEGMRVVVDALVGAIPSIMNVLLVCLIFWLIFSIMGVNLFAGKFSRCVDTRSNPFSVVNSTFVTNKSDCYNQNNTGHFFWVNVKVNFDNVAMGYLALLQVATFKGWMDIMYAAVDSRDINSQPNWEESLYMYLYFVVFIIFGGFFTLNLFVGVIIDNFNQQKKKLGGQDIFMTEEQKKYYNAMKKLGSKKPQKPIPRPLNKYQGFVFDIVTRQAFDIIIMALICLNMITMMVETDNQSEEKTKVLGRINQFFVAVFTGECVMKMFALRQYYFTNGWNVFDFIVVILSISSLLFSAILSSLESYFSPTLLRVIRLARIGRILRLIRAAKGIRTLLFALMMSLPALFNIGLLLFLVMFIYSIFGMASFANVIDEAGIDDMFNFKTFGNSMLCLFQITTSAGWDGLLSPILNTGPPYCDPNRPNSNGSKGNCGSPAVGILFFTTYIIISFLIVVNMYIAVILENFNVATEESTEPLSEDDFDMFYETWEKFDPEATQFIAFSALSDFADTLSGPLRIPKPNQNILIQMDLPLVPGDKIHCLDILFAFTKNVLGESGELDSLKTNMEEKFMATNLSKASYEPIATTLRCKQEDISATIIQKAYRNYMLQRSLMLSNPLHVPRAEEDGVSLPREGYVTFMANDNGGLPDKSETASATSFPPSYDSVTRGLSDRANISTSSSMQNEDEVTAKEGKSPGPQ
Cytochrome P450 2D6, sequence (P10635 whole entry): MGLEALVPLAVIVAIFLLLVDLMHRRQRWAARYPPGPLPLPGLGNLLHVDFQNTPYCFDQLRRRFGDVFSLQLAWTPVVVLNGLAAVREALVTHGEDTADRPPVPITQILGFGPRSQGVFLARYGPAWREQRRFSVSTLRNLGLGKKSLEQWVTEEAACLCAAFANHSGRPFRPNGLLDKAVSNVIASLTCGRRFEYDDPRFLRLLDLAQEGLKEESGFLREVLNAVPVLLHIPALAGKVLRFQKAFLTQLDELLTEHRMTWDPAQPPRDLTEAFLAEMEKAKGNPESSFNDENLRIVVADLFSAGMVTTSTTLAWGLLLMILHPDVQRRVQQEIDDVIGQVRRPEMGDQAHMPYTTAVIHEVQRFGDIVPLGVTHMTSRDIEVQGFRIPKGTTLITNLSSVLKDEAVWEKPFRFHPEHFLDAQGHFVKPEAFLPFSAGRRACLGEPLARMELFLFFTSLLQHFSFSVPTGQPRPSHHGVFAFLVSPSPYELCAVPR
Sodium channel protein type 2 subunit alpha, sequence (Q99250 whole entry): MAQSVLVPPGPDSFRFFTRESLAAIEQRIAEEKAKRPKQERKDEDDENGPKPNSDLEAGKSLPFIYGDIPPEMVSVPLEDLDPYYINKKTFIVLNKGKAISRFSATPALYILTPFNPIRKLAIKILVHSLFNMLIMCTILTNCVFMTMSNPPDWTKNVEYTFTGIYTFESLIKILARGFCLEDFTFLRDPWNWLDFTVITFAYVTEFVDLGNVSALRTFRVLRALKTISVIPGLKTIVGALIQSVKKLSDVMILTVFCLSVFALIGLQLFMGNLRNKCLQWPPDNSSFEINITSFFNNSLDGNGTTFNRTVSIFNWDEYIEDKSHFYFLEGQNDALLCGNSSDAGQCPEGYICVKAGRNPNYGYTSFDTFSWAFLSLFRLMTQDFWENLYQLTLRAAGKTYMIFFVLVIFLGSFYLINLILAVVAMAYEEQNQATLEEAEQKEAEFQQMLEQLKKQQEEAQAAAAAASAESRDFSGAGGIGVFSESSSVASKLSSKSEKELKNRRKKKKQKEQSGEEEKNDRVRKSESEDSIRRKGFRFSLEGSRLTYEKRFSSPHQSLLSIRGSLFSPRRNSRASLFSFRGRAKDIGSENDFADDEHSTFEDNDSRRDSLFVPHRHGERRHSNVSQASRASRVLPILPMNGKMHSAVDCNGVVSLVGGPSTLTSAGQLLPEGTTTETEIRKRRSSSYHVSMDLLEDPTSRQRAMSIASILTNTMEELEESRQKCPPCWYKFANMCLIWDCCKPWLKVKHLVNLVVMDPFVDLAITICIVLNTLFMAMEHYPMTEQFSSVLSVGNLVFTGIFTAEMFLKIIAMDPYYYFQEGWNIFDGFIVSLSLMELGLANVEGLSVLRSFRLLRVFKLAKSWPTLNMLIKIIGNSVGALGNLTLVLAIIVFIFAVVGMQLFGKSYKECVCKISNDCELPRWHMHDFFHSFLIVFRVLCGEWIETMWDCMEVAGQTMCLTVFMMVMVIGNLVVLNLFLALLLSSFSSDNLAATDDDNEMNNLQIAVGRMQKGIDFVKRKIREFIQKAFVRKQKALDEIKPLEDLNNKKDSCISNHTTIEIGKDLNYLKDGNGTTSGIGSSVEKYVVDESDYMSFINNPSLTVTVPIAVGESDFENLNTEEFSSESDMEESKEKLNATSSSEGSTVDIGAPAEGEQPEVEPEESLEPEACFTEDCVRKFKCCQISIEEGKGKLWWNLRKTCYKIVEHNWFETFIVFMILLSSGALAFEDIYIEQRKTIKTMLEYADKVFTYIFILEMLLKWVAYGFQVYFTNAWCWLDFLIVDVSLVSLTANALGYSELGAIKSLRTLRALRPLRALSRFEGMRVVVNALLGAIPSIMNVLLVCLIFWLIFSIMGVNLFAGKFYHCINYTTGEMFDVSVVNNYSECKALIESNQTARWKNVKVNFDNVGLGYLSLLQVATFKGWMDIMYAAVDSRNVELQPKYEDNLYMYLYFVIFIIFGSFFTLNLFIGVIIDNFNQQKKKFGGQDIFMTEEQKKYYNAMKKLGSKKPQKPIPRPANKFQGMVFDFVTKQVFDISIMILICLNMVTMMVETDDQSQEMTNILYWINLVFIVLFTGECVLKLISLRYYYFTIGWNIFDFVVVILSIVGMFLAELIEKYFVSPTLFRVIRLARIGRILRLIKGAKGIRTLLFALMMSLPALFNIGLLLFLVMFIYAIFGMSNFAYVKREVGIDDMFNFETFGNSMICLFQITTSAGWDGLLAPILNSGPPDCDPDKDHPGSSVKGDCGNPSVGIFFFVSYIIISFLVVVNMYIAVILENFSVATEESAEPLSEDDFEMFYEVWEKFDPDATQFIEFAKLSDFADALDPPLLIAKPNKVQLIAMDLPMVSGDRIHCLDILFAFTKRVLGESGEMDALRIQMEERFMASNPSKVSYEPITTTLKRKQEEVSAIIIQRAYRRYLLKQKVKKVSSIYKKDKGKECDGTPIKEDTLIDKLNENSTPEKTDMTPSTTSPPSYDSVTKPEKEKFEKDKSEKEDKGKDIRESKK
Cytochrome P450 2C19, sequence (P33261 whole entry): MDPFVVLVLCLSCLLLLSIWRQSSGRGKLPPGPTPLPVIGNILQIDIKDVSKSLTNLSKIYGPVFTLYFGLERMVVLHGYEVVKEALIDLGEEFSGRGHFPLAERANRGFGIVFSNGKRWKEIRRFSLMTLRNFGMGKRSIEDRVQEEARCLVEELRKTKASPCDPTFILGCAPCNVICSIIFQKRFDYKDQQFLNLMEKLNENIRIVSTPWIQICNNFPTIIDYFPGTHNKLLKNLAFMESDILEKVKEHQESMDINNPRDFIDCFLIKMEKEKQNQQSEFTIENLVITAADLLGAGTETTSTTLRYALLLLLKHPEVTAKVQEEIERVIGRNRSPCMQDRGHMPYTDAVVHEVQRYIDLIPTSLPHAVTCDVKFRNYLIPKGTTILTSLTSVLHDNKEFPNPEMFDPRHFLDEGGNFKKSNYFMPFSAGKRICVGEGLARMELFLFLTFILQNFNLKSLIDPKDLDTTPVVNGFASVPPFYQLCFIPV

CC1(COc2cc(F)c(C(=O)NS(=O)(=O)C3CC3)cc2C2CC2)CCC2(CC1)CC2 showed a pIC50 [1] of less than 5.00, a pIC50 [2] of less than 5.00 and a pIC50 [3] of 5.21. The pIC50 [4] was less than 5.00, the Papp A→B [5] was 9 ×10⁻⁶ cm/s and the fraction unbound [6] was 0.001. For the same compound, the pIC50 [7] was 8.43, the pIC50 [8] was 7.30 and the pIC50 [9] was 8.70. For the same compound, the inhibition [10] was 38%, the fraction unbound [11] was 0.001 and the solubility kinetic [12] was 10 µM (≈ 4.36 µg/mL). For the same compound, the Papp A→B [13] was 5.1 ×10⁻⁶ cm/s, the half-life [14] was 9.2 h and the AUC [15] was 113 µM·h. The bioavailability [16] was 31%, the clearance [17] was 1.2 mL/min/kg and the Vd [18] was 0.88 L/kg. For the same compound, the Cmax [19] was 13 µM, the AUC [20] was 78 µM·h and the Vd [21] was 0.14 L/kg. For the same compound, the Cmax [22] was 9 µM, the Activity [23] was 78% and the “Cp(f)” value [24] was 0.003 µM. The concentration at 3.167 h [25] was 79 µM and the Kp at 3.167 h [26] was 0.08.
